Data as given in patent publication US10570179B2, “Substituted urea depsipeptide analogs as activators of the CLPP endopeptidase” (priority 2016, dated 2020).
Numbered stars: 1 amine (or outer) side, 2 acyl side, 3 side chain; on linkers, the order of the positions; unused ones are H or OH. Bridge positions count the residues as written; N and C are the ends. Square brackets hold non-standard residues; d marks the D form. Peptide text beside a SMILES is read from it. * marks the point of attachment. Piperazine(2S-CO,4-Me) = CN1CCN[C@H](C(=O)O)C1; Phe(3-Cl) = N[C@@H](Cc1cccc(Cl)c1)C(=O)O; Morpholine(3S-CO) = O=C(O)[C@@H]1COCCN1; Phe(3-Me) = Cc1cccc(C[C@H](N)C(=O)O)c1; NH(4-Cl-2-F-phenyl) = Fc1cc(Cl)ccc1N*; Pro(4R-Me) = C[C@H]1CN[C@H](C(=O)O)C1; Propanoyl(3-NMe2) = CN(C)CCC(=O)*; X1 = O=C([C@@H]1CSCCN1[*:1])[*:2]; Hyp = O=C(O)[C@@H]1C[C@@H](O)CN1; NH(4-Et-phenyl) = CCc1ccc(N*)cc1; NH(4-Me-phenyl) = Cc1ccc(N*)cc1; aThr = C[C@H](O)[C@H](N)C(=O)O; Pip = O=C(O)[C@@H]1CCCCN1; CO = O=C([*:1])[*:2]; X2 = Fc1cc(N*)ccc1Cl

Experiments:
S. aureus ClpP (Sa-ClpP) = target: T1, S. aureus ClpP (Sa-ClpP) (Staphylococcus aureus, UniProt Q2G036); experiment: Casein-BODIPY digestion assay (ClpP activation); assay type: biochemical
T1 construct: made in house; host or cells: E. coli BL21 (DE3)

[1] = Microsomal metabolic stability; assay type: in vitro ADME, human
Description: (§1) Compounds were initially prepared by dissolving them into DMSO at a final concentration of 10 mM. NADPH regenerating solutions A and B and mouse liver microsomes (CD-1) were obtained from BD Gentest (Woburn, Mass.). Ninety-six well deep well plates were obtained from MidWest Scientific Inc (Valley Park, Mo.).
(§2) Sample preparation for microsomal stability was modified from methods of Di, L., et al., Int J Pharm. 2005 Jun. 13; 297(1-2):110-9. A set of incubation times of 0, 15, 30, 60, 120, and 240 minutes were used. Mouse liver microsomal solutions were prepared by adding 58 μL of concentrated human or mouse liver microsomes (20 mg/mL protein concentration) to 1.756 mL of 0.1 M potassium phosphate buffer (pH 7.4) and 5 μL of 0.5 M EDTA to make a 0.6381 mg/mL (protein) microsomal solution. NADPH regenerating agent contained 113 μL of NADPH A, 23 μL of NADPH B, and 315 μL of 0.1 M potassium phosphate buffer (pH 7.4). The diluted test compound solutions (2 μL) were each added directly to a 1.79 mL of liver microsomal solution. This solution was mixed and 90 μL was transferred to 6 time points plates (each in triplicate wells). For the time 0 plate, 225 μL of cold acetonitrile with internal standard ([…] warfarin) was added to each well, followed by addition of NADPH regenerating agent (22.5 μL) and no incubation. For other five time points' plate, NADPH regenerating agent (22.5 μL) was added to each well to initiate the reaction. The plates were incubated at 37° C. for the required time, followed by quenching of the reaction by adding 225 μL of cold acetonitrile with internal standard (4 μg/ml warfarin). All of the plates were sealed and mixed well at 600 rpm for 10 minutes followed by centrifugation at 4000 rpm for 20 minutes. The supernatants (120 μL) were transferred to analytical plates for analysis by LCMS. LCMS conditions were described in the materials and instrumentation section above. The metabolic stability is evaluated via the half-life from least-squares fit of the multiple time points based on first-order kinetics.

[2] = Microsomal metabolic stability; assay type: in vitro ADME, mouse
Description: as §1, §2

Plasma stability assay [3] = assay type: in vitro ADME, human
Description: (§3) The plasma stability property of early drug discovery compounds can influence the in vivo efficacy of the test compounds/drugs. Human and/or mouse plasma degradation is determined using multiple time points to monitor the rate of disappearance of the parent compound during incubation.
(§4) Sample preparation for plasma stability was modified from Di et al. (2005) Int. J. Pharm. 297(1-2): 110-119. A set of incubation times of 0, 3, 24, and 48 hour were used. DMSO stock solutions of test compounds were prepared at 10 mM concentration. 1.8 μL of each test compound was each added directly to 1.8 mL of human/mouse plasma to get the final concentration of 10 μM. This compound/matrix was mixed and 70 μL was transferred to 8 time points plates (each in triplicate wells). For the Time 0 plate, 210 μL of cold acetonitrile with internal standard (4 μg/mL warfarin) was added to each well and no incubation needed. For other seven time points' plate, the plate was incubated at 37° C. for required time, followed by quenching of the reaction by adding 210 μL of cold acetonitrile with internal standard (4 μg/ml warfarin) to each well. All of the plates were sealed and mixed well at 600 rpm for 10 min and were centrifuged at 4000 rpm for 20 min. The supernatants (120 μL) were transferred to analytical plates for analysis by LCMS. Conditions for Waters ACQUITY-UPLC-MS-UV system was described separately. The plasma stability was evaluated via the half-life from least-squares fit of the multiple time points based on first-order kinetics.

Plasma stability assay [4] = assay type: in vitro ADME, mouse
Description: as §3, §4

T1 sequence (Q2G036 whole entry): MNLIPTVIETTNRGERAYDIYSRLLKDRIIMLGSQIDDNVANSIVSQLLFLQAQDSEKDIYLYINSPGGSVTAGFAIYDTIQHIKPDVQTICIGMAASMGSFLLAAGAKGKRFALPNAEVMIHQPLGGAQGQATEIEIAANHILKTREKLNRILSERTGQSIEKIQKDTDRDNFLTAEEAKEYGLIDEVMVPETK

| SMILES | EC50 (S. aureus ClpP (Sa-ClpP)) [µM] | Human ([1]; human, pH 7.4) | Mouse ([2]; CD-1, mouse, pH 7.4) | Human (Plasma stability assay [3]; human, 10 μM) [h] | Mouse (Plasma stability assay [4]; mouse, 10 μM) [h] | Human ([1]; microsomal metabolic stability half-life, human liver microsomes) [h] | Mouse ([2]; microsomal metabolic stability half-life, mouse liver microsomes) [h] | Human (Plasma stability assay [3]; plasma stability half-life, human plasma, 37° C.) [h] | Mouse (Plasma stability assay [4]; plasma stability half-life, mouse plasma, 37° C.) [h] |
| --- | --- | --- | --- | --- | --- | --- | --- | --- | --- |
| Cc1cccc(C[C@H](NC(=O)Nc2ccc(Cl)cc2F)C(=O)N[C@H]2COC(=O)[C@@H]3C[C@@H](C)CN3C(=O)[C@H](C)NC(=O)[C@@H]3CCCCN3C(=O)[C@@H]3C[C@H](N)CN3C2=O)c1 [Compound 12, (S)—N-((2R,6S,8AS,14AS,16S,20S,23AS)-16-AMINO-2,6-DIMETHYL-5,8,14,19,23-PENTAOXOOCTADECAHYDRO-1H,5H,14H,19H-PYRIDO[2,1-I]DIPYRROLO[2,1-C:2′,1′-L][1]OXA[4,7,10,13]TETRAAZACYCLOHEXADECIN-20-YL)-2-(3-(4-CHLORO-2-FLUOROPHENYL)UREIDO)-3-(M-TOLYL)PROPANAMIDE] | 0.58 ± 0.02 | 3.34 ± 0.6 h | 2.34 ± 0.44 h | 38.58 | 18.63 | – | – | – | – |
| CCc1ccc(NC(=O)N[C@@H](Cc2cccc(C)c2)C(=O)N[C@@H]2C(=O)N3C[C@H](O)C[C@H]3C(=O)N3CCOC[C@H]3C(=O)N[C@@H](C)C(=O)N3C[C@H](C)C[C@H]3C(=O)O[C@H]2C)cc1 [Compound 24, (S)-2-(3-(4-ETHYLPHENYL)UREIDO)-N-((6AS,8R,12S,13S,15AS,17R,21S,23AS)-8-HYDROXY-13,17,21-TRIMETHYL-6,11,15,20,23-PENTAOXOOCTADECAHYDRO-6H,11H,15H-[1,4]OXAZINO[3,4-I]DIPYRROLO[2,1-C:2′,1′-L][1]OXA[4,7,10,13]TETRAAZACYCLOHEXADECIN-12-YL)-3-(M-TOLYL)PROPANAMIDE] ({NH(4-Et-phenyl)-CO}-[Phe(3-Me)][aThr][Hyp][Morpholine(3S-CO)]A[Pro(4R-Me)]; ester 2-C) | 0.13 ± 0.04 | 4.89 ± 0.67 h | 1.03 ± 0.05 h | 90.86 | >50 | – | – | – | – |
| Cc1ccc(NC(=O)N[C@@H](Cc2cccc(C)c2)C(=O)N[C@@H]2C(=O)N3C[C@H](O)C[C@H]3C(=O)N3CCCC[C@H]3C(=O)N[C@@H](C)C(=O)N3C[C@H](C)C[C@H]3C(=O)O[C@H]2C)cc1 [Compound 26, (S)—N-((2R,6S,8AS,14AS,16R,20S,21S,23AS)-16-HYDROXY-2,6,21-TRIMETHYL-5,8,14,19,23-PENTAOXOOCTADECAHYDRO-1H,5H,14H,19H-PYRIDO[2,1-I]DIPYRROLO[2,1-C:2′,1′-L][1]OXA[4,7,10,13]TETRAAZACYCLOHEXADECIN-20-YL)-3-(M-TOLYL)-2-(3-(P-TOLYL)UREIDO)PROPANAMIDE] ({NH(4-Me-phenyl)-CO}-[Phe(3-Me)][aThr][Hyp][Pip]A[Pro(4R-Me)]; ester 2-C) | 0.65 ± 0.09 | – | – | – | – | 2.66 ± 0.3 | 2.49 ± 0.35 | >50 | >50 |
| C[C@@H]1C[C@H]2C(=O)O[C@@H](C)[C@H](NC(=O)[C@H](Cc3cccc(Cl)c3)NC(=O)Nc3ccc(Cl)cc3F)C(=O)N3CCC[C@H]3C(=O)N3CCN(C)C[C@H]3C(=O)N[C@@H](C)C(=O)N2C1 [Compound 33] ({NH(4-Cl-2-F-phenyl)-CO}-[Phe(3-Cl)][aThr]P[Piperazine(2S-CO,4-Me)]A[Pro(4R-Me)]; ester 2-C) | 0.2 ± 0.2 | 9.25 ± .255 h | 0.80 ± .805 h | >50 | >50 | – | – | – | – |
| Cc1cccc(C[C@H](NC(=O)Nc2ccc3c(c2)OCCO3)C(=O)N[C@H]2COC(=O)[C@@H]3C[C@@H](C)CN3C(=O)[C@H](C)NC(=O)[C@@H]3CCCCN3C(=O)[C@@H]3CCCN3C2=O)c1 [Compound 22, (S)-2-(3-(2,3-DIHYDROBENZO[B][1,4]DIOXIN-6-YL)UREIDO)-N-((2R,6S,8AS,14AS,20S,23AS)-2,6-DIMETHYL-5,8,14,19,23-PENTAOXOOCTADECAHYDRO-1H,5H,14H,19H-PYRIDO[2,1-I]DIPYRROLO[2,1-C:2′,1′-L][1]OXA[4,7,10,13]TETRAAZACYCLOHEXADECIN-20-YL)-3-(M-TOLYL)PROPANAMIDE] | 0.65 ± 0.06 | 3.57 ± 0.52 h | 4.48 ± 0.61 h | >50 | 46.15 | – | – | – | – |
| Cc1cccc(C[C@H](NC(=O)Nc2ccc(Cl)cc2F)C(=O)N[C@@H]2C(=O)N3CCC[C@H]3C(=O)N3CCSC[C@H]3C(=O)N[C@@H](C)C(=O)N3C[C@H](C)C[C@H]3C(=O)O[C@H]2C)c1 [Compound 38, (S)-2-(3-(4-CHLORO-2-FLUOROPHENYL)UREIDO)-3-(M-TOLYL)-N-((6AS,12S,13S,15AS,17R,21S,23AR)-13,17,21-TRIMETHYL-6,11,15,20,23-PENTAOXOOCTADECAHYDRO-6H,11H,15H-DIPYRROLO[2,1-C:2′,1′-L][1,4]THIAZINO[3,4-I][1]OXA[4,7,10,13]TETRAAZACYCLOHEXADECIN-12-YL)PROPANAMIDE] ({NH(4-Cl-2-F-phenyl)-CO}-[Phe(3-Me)][aThr]P[X1]A[Pro(4R-Me)]; ester 2-C) | – | 1.00 ± .003 h | 1.25 ± .253 h | >50 | >50 | – | – | – | – |
| Cc1cccc(C[C@H](NC(=O)Nc2ccc(Cl)cc2F)C(=O)N[C@@H]2C(=O)N3C[C@H](OC(=O)CCN(C)C)C[C@H]3C(=O)N3CCCC[C@H]3C(=O)N[C@@H](C)C(=O)N3C[C@H](C)C[C@H]3C(=O)O[C@H]2C)c1 [Compound 46, (2R,6S,8AS,14AS,16R,20S,21S,23AS)-20-((S)-2-(3-(4-CHLORO-2-FLUOROPHENYL)UREIDO)-3-(M-TOLYL)PROPANAMIDO)-2,6,21-TRIMETHYL-5,8,14,19,23-PENTAOXOOCTADECAHYDRO-1H,5H,14H,19H-PYRIDO[2,1-I]DIPYRROLO[2,1-C:2′,1′-L][1]OXA[4,7,10,13]TETRAAZACYCLOHEXADECIN-16-YL 3-(DIMETHYLAMINO)PROPANOATE] ({NH(4-Cl-2-F-phenyl)-CO}-[Phe(3-Me)][aThr][Hyp](Propanoyl(3-NMe2))[Pip]A[Pro(4R-Me)]; ester 2-C) | – | 2.09 ± 0.14 h | 0.22 ± 0.0 h | 0.57 | 0.49 | – | – | – | – |
| Cc1cccc(C[C@H](NC(=O)Nc2ccc(Cl)c(F)c2)C(=O)N[C@@H]2C(=O)N3CCC[C@H]3C(=O)N3CCCC[C@H]3C(=O)N[C@@H](C)C(=O)N3C[C@H](C)C[C@H]3C(=O)O[C@H]2C)c1 [Compound 35, (S)-2-(3-(4-CHLORO-3-FLUOROPHENYL)UREIDO)-3-(M-TOLYL)-N-((2R,6S,8AS,14AS,20S,21S,23AS)-2,6,21-TRIMETHYL-5,8,14,19,23-PENTAOXOOCTADECAHYDRO-1H,5H,14H,19H-PYRIDO[2,1-I]DIPYRROLO[2,1-C:2′,1′-L][1]OXA[4,7,10,13]TETRAAZACYCLOHEXADECIN-20-YL)PROPANAMIDE] ({X2-CO}-[Phe(3-Me)][aThr]P[Pip]A[Pro(4R-Me)]; ester 2-C) | – | 1.14 ± .145 h | 1.54 ± .545 h | >50 | >50 | – | – | – | – |
